# Laboratory results: US20150218212A1, “FLUORINATED EPOXYKETONE-BASED TETRAPEPTIDE COMPOUNDS AND USES THEREOF AS PROTEASOME INHIBITORS” (FLUORINOV PHARMA INC., priority 2012, published 2015)
# Experiments:
# Assay type in all cases: cell-based, human
# A498 = experiment: NCI screening panel, A498 (Renal Cancer)
# Procedure: (§1) Representative compounds of Formula I were screened using the National Cancer Institute (NCI) screening panel, which consists of a panel of human tumor cell lines, representing leukemia, melanoma, and cancers of the lung, colon, ovary, breast, prostate and renal system.
# (§2) After 24 h, two plates of each cell line are fixed in situ with TCA, to represent a measurement of the cell population for each cell line at the time of drug addition (Tz). Experimental drugs are solubilised in dimethyl sulfoxide at 400-fold the desired final maximum test concentration and stored frozen prior to use. At the time of drug addition, an aliquot of frozen concentrate is thawed and diluted to twice the desired final maximum test concentration with complete medium containing 50 μg/mL gentamicin. Additional four, 10-fold or ½ log serial dilutions are made to provide a total of five drug concentrations plus control. Aliquots of 100 μl of these different drug dilutions are added to the appropriate microtiter wells already containing 100 μl of medium, resulting in the required final drug concentrations.
# (§3) Following drug addition, the plates are incubated for an additional 48 h at 37° C., 5% CO2, 95% air, and 100% relative humidity. For adherent cells, the assay is terminated by the addition of cold TCA (trichloroacetic acid). Cells are fixed in situ by the gentle addition of 50 μl of cold 50% (w/v) TCA (final concentration, 10% TCA) and incubated for 60 minutes at 4° C. The supernatant is discarded, and the plates are washed five times with tap water and air dried. Sulforhodamine B (SRB) solution (100 μl) at 0.4% (w/v) in 1% acetic acid is added to each well, and plates are incubated for 10 minutes at room temperature. After staining, unbound dye is removed by washing five times with 1% acetic acid and the plates are air dried. Bound stain is subsequently solubilised with 10 mM trizma base, and the absorbance is read on an automated plate reader at a wavelength of 515 nm. For suspension cells, the methodology is the same except that the assay is terminated by fixing settled cells at the bottom of the wells by gently adding 50 μl of 80% TCA (final concentration, 16% TCA). Using the seven absorbance measurements [time zero, (Tz), control growth, (C), and test growth in the presence of drug at the five concentration levels (Ti)], the percentage growth is calculated at each of the drug concentrations levels. Percentage growth inhibition is calculated as: [(Ti−Tz)/(C−Tz)]×100 for concentrations for which Ti>/=Tz and [(Ti−Tz)/Tz]×100 for concentrations for which Ti<Tz.
# (§4) Three dose response parameters are calculated for each experimental agent. Growth inhibition of 50% (GI50) is calculated from [(Ti−Tz)/(C−Tz)]×100=50, which is the drug concentration resulting in a 50% reduction in the net protein increase (as measured by SRB staining) in control cells during the drug incubation. The drug concentration resulting in total growth inhibition (TGI) is calculated from Ti=Tz. The LC50 (concentration of drug resulting in a 50% reduction in the measured protein at the end of the drug treatment as compared to that at the beginning) indicating a net loss of cells following treatment is calculated from [(Ti−Tz)/Tz]×100=−50. Values are calculated for each of these three parameters if the level of activity is reached. However, if the effect is not reached or is exceeded, the value for that parameter is expressed as greater or less than the maximum or minimum concentration tested.
# KM12 = experiment: NCI screening panel, KM12 (Colon Cancer)
# Procedure: as §1, §2, §3, §4
# OVCAR-5 = experiment: NCI screening panel, OVCAR-5 (Ovarian Cancer)
# Procedure: as §1, §2, §3, §4
# HS 578T = experiment: NCI screening panel, HS 578T (Breast Cancer)
# Procedure: as §1, §2, §3, §4
# M14 = experiment: NCI screening panel, M14 (Melanoma)
# Procedure: as §1, §2, §3, §4
# MOLT-4 = experiment: NCI screening panel, MOLT-4 (Leukemia)
# Procedure: as §1, §2, §3, §4
# RPMI-8226 = experiment: NCI screening panel, RPMI-8226 (Leukemia)
# Procedure: as §1, §2, §3, §4
# SNB-75 = experiment: NCI screening panel, SNB-75 (CNS Cancer)
# Procedure: as §1, §2, §3, §4
# HT29 = experiment: NCI screening panel, HT29 (Colon Cancer)
# Procedure: as §1, §2, §3, §4
# UO-31 = experiment: NCI screening panel, UO-31 (Renal Cancer)
# Procedure: as §1, §2, §3, §4
# MCF7 = experiment: NCI screening panel, MCF7 (Breast Cancer)
# Procedure: as §1, §2, §3, §4
# SN12C = experiment: NCI screening panel, SN12C (Renal Cancer)
# Procedure: as §1, §2, §3, §4
# NCI-H23 = experiment: NCI screening panel, NCI-H23 (Non-Small Cell Lung Cancer)
# Procedure: as §1, §2, §3, §4
# TK-10 = experiment: NCI screening panel, TK-10 (Renal Cancer)
# Procedure: as §1, §2, §3, §4
# SF-539 = experiment: NCI screening panel, SF-539 (CNS Cancer)
# Procedure: as §1, §2, §3, §4
# NCI-H322M = experiment: NCI screening panel, NCI-H322M (Non-Small Cell Lung Cancer)
# Procedure: as §1, §2, §3, §4
# OVCAR-4 = experiment: NCI screening panel, OVCAR-4 (Ovarian Cancer)
# Procedure: as §1, §2, §3, §4
compound,measurement,setting,value
"CC(C)C[C@H](NC(=O)[C@H](COC(F)F)NC(=O)CN1CCOCC1)C(=O)N[C@@H](COC(F)F)C(=O)N[C@@H](CC(C)C)C(=O)[C@@]1(C)CO1 [Example 1, (2S)—N-[(1S)-1-(difluoromethoxymethyl)-2-[[(1S)-3-methyl-1-[(2R)-2-methyloxirane-2-carbonyl]butyl]amino]-2-oxo-ethyl]-2-[[(2S)-3-(difluoromethoxy)-2-[(2-morpholinoacetyl)amino]propanoyl]amino]-4-methyl-pentanamide]",Log10GI50,A498,−7.59
same,Log10LC50,A498,−6.06
same,Log10TGI50,A498,−6.93
same,Log10GI50,KM12,−7.76
same,Log10LC50,KM12,−7.10
same,Log10TGI50,KM12,−7.43
same,Log10GI50,OVCAR-5,−7.39
same,Log10LC50,OVCAR-5,>−4.00
same,Log10TGI50,OVCAR-5,−6.31
same,Log10GI50,HS 578T,−7.72
same,Log10LC50,HS 578T,>−4.00
same,Log10TGI50,HS 578T,−7.01
same,Log10GI50,M14,−7.25
same,Log10LC50,M14,>−4.00
same,Log10TGI50,M14,−6.31
same,Log10GI50,MOLT-4,−7.57
same,Log10LC50,MOLT-4,>−4.00
same,Log10TGI50,MOLT-4,−6.98
same,Log10GI50,RPMI-8226,−7.56
same,Log10LC50,RPMI-8226,>−4.00
same,Log10TGI50,RPMI-8226,−7.05
same,Log10GI50,SNB-75,−7.66
same,Log10LC50,SNB-75,−5.88
same,Log10TGI50,SNB-75,−7.29
same,Log10GI50,HT29,−7.77
same,Log10LC50,HT29,>−4.00
same,Log10TGI50,HT29,−4.15
same,Log10GI50,UO-31,−5.70
same,Log10LC50,UO-31,>−4.00
same,Log10TGI50,UO-31,−4.86
same,Log10GI50,MCF7,<−8.00
same,Log10LC50,MCF7,>−4.00
same,Log10TGI50,MCF7,−5.18
same,Log10GI50,SN12C,−7.31
same,Log10LC50,SN12C,−4.88
same,Log10TGI50,SN12C,−6.62
same,Log10GI50,NCI-H23,−7.56
same,Log10LC50,NCI-H23,>−4.00
same,Log10TGI50,NCI-H23,−6.68
same,Log10GI50,TK-10,−6.53
same,Log10LC50,TK-10,>−4.00
same,Log10TGI50,TK-10,−5.17
same,Log10GI50,SF-539,−7.78
same,Log10LC50,SF-539,−6.62
same,Log10TGI50,SF-539,−7.35
same,Log10GI50,NCI-H322M,−7.19
same,Log10LC50,NCI-H322M,−4.86
same,Log10TGI50,NCI-H322M,−6.45
same,Log10GI50,OVCAR-4,−7.77
same,Log10LC50,OVCAR-4,>−4.00
same,Log10TGI50,OVCAR-4,−6.60
"CC(C)C[C@H](NC(=O)[C@H](COC(F)F)NC(=O)[C@H](COC(F)F)NC(=O)[C@H](CCc1ccccc1)NC(=O)CN1CCOCC1)C(=O)[C@@]1(C)CO1 [Example 7, (2S)-N-[(1S)-1-(difluoromethoxymethyl)-2-[[(1S)-1-(difluoromethoxymethyl)-2-[[(1S)-3-methyl-1-[(2R)-2-methyloxirane-2-carbo-nyl]butyl]amino]-2-oxo-ethyl]amino]-2-oxo-ethyl]-2-[(2-morpholinoacetyl)amino]-4-phenyl-butanamide]",Log10GI50,A498,−7.40
same,Log10LC50,A498,−6.06
same,Log10TGI50,A498,−6.75
same,Log10GI50,KM12,−7.78
same,Log10LC50,KM12,−7.11
same,Log10TGI50,KM12,−7.45
same,Log10GI50,OVCAR-5,−7.31
same,Log10LC50,OVCAR-5,>−4.00
same,Log10TGI50,OVCAR-5,−6.14
same,Log10GI50,HS 578T,−7.70
same,Log10LC50,HS 578T,>−4.00
same,Log10TGI50,HS 578T,−6.05
same,Log10GI50,M14,−7.11
same,Log10LC50,M14,>−4.00
same,Log10TGI50,M14,−5.70
same,Log10GI50,MOLT-4,−7.71
same,Log10LC50,MOLT-4,>−4.00
same,Log10TGI50,MOLT-4,−6.85
same,Log10GI50,RPMI-8226,−7.56
same,Log10LC50,RPMI-8226,>−4.00
same,Log10TGI50,RPMI-8226,−7.04
same,Log10GI50,SNB-75,−7.65
same,Log10LC50,SNB-75,−4.01
same,Log10TGI50,SNB-75,−7.16
same,Log10GI50,HT29,<−8.00
same,Log10LC50,HT29,>−4.00
same,Log10TGI50,HT29,−4.93
same,Log10GI50,UO-31,−5.97
same,Log10LC50,UO-31,−4.70
same,Log10TGI50,UO-31,−5.45
same,Log10GI50,MCF7,<−8.00
same,Log10LC50,MCF7,>−4.00
same,Log10TGI50,MCF7,>−4.00
same,Log10GI50,SN12C,−7.46
same,Log10LC50,SN12C,−5.85
same,Log10TGI50,SN12C,−6.77
same,Log10GI50,NCI-H23,−7.57
same,Log10LC50,NCI-H23,>−4.00
same,Log10TGI50,NCI-H23,−5.58
same,Log10GI50,TK-10,−6.56
same,Log10LC50,TK-10,>−4.00
same,Log10TGI50,TK-10,−5.24
same,Log10GI50,SF-539,−7.74
same,Log10LC50,SF-539,−4.26
same,Log10TGI50,SF-539,−7.20
same,Log10GI50,NCI-H322M,−7.04
same,Log10LC50,NCI-H322M,−4.81
same,Log10TGI50,NCI-H322M,−6.35
same,Log10GI50,OVCAR-4,−7.69
same,Log10LC50,OVCAR-4,>−4.00
same,Log10TGI50,OVCAR-4,>−4.00
